From ChEMBL document CHEMBL2062358, “Hortonones A to C, hydroazulenones from the genus Hortonia” (J Nat Prod, 2012) come the findings set out here.

Activity calls are given as the source filed them. No cut-off for these calls is given here.

The subject of test [1] is MCF7. Description: Cytotoxicity against human MCF7 cells at 100 ug/ml after 48 hrs by MTT assay. In kind it is functional, cell-based.
Test [2] has as its system MCF7. Put plainly: Cytotoxicity against human MCF7 cells at 5 ug/ml after 48 hrs by MTT assay. In kind it is functional, cell-based.

With `CC(C)[C@H]1CC[C@@H]2C(=O)C=C(CO)CC[C@@]21C` (relative stereo), in the test with MCF7 [1], the result was inactive. Regarding `CC(C)[C@H]1CC[C@@H]2C=CC(=O)CC[C@]12C` (relative stereo), the result in the test on MCF7 [2] was Active. Turning to `CC1=CC(=O)[C@H]2CC[C@H](C(C)C)[C@@]2(C)CC1` (relative stereo), the outcome in the test on MCF7 [1] was inactive.
